Results taken from ChEMBL document CHEMBL1201862, “PubChem BioAssay data set” (2004).
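Assay format: 96-well plates, 48-hour exposure. Here, GI50 denotes the concentration required for 50% inhibition of growth.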 Calls of active or inactive are those of the source. Cut-off read from the data, not from the text of the source: active = GI50 up to about 1.1 µM and inactive = higher.

Key:
Experiment in all cases: growth of human tumour cells (NCI), 48 h
EKVX = tested on: EKVX
SK-MEL-28 = tested on: SK-MEL-28
COLO 205 = tested on: COLO 205
HT-29 = tested on: HT-29
A498 = tested on: A498
SF-539 = tested on: SF-539
786-0 = tested on: 786-0
SK-MEL-5 = tested on: SK-MEL-5
SF-268 = tested on: SF-268
ACHN = tested on: ACHN
RPMI-8226 = tested on: RPMI-8226
UACC-257 = tested on: UACC-257
HL-60 = tested on: HL-60
OVCAR-5 = tested on: OVCAR-5
MDA-MB-435 = tested on: MDA-MB-435
KM12 = tested on: KM12
MDA-MB-231 = tested on: MDA-MB-231
MDA-N = tested on: MDA-N
SR = tested on: SR

Measured: GI50

Cn1c(CBr)nc2c1C(=O)c1nc(CBr)[nH]c(=O)c1C2=O
inactive: EKVX > 100 µM | SK-MEL-28 > 100 µM | COLO 205 > 100 µM | HT-29 > 100 µM | A498 > 100 µM | SF-539 > 100 µM | 786-0 > 100 µM | SK-MEL-5 > 100 µM | SF-268 > 100 µM | ACHN > 100 µM | RPMI-8226 53 µM

CCOC(=O)c1c(OCC)[nH]c(=O)c(C(c2cccs2)c2c(O)c(C(=O)OCC)c(OCC)[nH]c2=O)c1O
inactive: EKVX 11.5 µM | SK-MEL-28 13.1 µM | COLO 205 17.3 µM | UACC-257 11.7 µM | HL-60 13.7 µM | HT-29 16.1 µM | A498 2.67 µM | OVCAR-5 26.5 µM | SF-539 6.4 µM | 786-0 12.1 µM | SK-MEL-5 12.9 µM | MDA-MB-435 14.5 µM | KM12 17.9 µM | SF-268 10.2 µM | ACHN 12.8 µM | RPMI-8226 12.1 µM | MDA-MB-231 11.1 µM

CC(=O)OCC1OC(n2c(N)c(C#N)c(C)c(C#N)c2=S)C(OC(C)=O)C(OC(C)=O)C1OC(C)=O (centres undefined)
inactive: EKVX > 100 µM | SK-MEL-28 > 100 µM | COLO 205 > 100 µM | UACC-257 > 100 µM | HT-29 > 100 µM | A498 > 100 µM | OVCAR-5 > 100 µM | SF-539 > 100 µM | 786-0 > 100 µM | MDA-N > 100 µM | SK-MEL-5 > 100 µM | MDA-MB-435 > 100 µM | KM12 > 100 µM | SF-268 > 100 µM | ACHN > 100 µM | RPMI-8226 > 100 µM

COc1cc(/C=C2\N=C(c3ccccc3)N(c3nc4c(Cl)cc(Cl)cc4s3)C2=O)ccc1O
inactive: EKVX 17.9 µM | SK-MEL-28 52 µM | COLO 205 43.4 µM | UACC-257 30.9 µM | HL-60 16.3 µM | HT-29 27.7 µM | A498 17.8 µM | OVCAR-5 71 µM | SF-539 41.6 µM | SR 11.1 µM | 786-0 35.9 µM | SK-MEL-5 24.5 µM | MDA-MB-435 27.5 µM | KM12 25.4 µM | SF-268 30.1 µM | ACHN 25.8 µM | RPMI-8226 8.53 µM | MDA-MB-231 25.8 µM

C[C@]12CC(c3ccccc3O1)C(C(=O)Nc1nc(C34CC5CC(CC(C5)C3)C4)cs1)C(=O)N2 (some centres undefined)
inactive: EKVX > 100 µM | SK-MEL-28 > 100 µM | COLO 205 > 100 µM | UACC-257 > 100 µM | HL-60 > 100 µM | HT-29 > 100 µM | A498 > 100 µM | OVCAR-5 > 100 µM | SR > 100 µM | 786-0 > 100 µM | SK-MEL-5 > 100 µM | MDA-MB-435 > 100 µM | KM12 > 100 µM | SF-268 > 100 µM | ACHN > 100 µM | RPMI-8226 > 100 µM | MDA-MB-231 > 100 µM

O=C(Cn1cc(-c2ccccc2)nn1)NC1CCCCC1
inactive: EKVX > 100 µM | SK-MEL-28 > 100 µM | COLO 205 > 100 µM | UACC-257 > 100 µM | HL-60 > 100 µM | HT-29 > 100 µM | OVCAR-5 > 100 µM | SF-539 > 100 µM | SR > 100 µM | 786-0 > 100 µM | SK-MEL-5 > 100 µM | MDA-MB-435 > 100 µM | KM12 > 100 µM | SF-268 > 100 µM | ACHN > 100 µM | RPMI-8226 > 100 µM | MDA-MB-231 > 100 µM

COc1ccc(C(=O)c2nc3ccccc3nc2N2CCN(c3ccccc3)CC2)cc1OC
inactive: EKVX > 100 µM | SK-MEL-28 > 100 µM | COLO 205 > 100 µM | UACC-257 > 100 µM | HL-60 > 100 µM | HT-29 > 100 µM | A498 > 100 µM | OVCAR-5 > 100 µM | SF-539 > 100 µM | SR > 100 µM | 786-0 > 100 µM | MDA-N > 100 µM | SK-MEL-5 > 100 µM | MDA-MB-435 > 100 µM | KM12 > 100 µM | SF-268 > 100 µM | ACHN > 100 µM | RPMI-8226 > 100 µM

N=C(N)N/N=C/c1c(-c2ccccc2[N+](=O)[O-])nc2sccn12
inactive: EKVX 43.8 µM | SK-MEL-28 30.8 µM | COLO 205 15.8 µM | UACC-257 18.3 µM | HL-60 16.6 µM | HT-29 27.7 µM | A498 18.8 µM | OVCAR-5 30.7 µM | SF-539 19.2 µM | SR 14.4 µM | 786-0 19.5 µM | SK-MEL-5 16.9 µM | MDA-MB-435 17.1 µM | KM12 20.4 µM | SF-268 28.8 µM | ACHN 39.3 µM | RPMI-8226 19.5 µM | MDA-MB-231 16.1 µM

COc1ccc(N2C(=O)C3c4[nH]c5ccccc5c4C4CCCCCCCCCCC4C3C2=O)cc1 (centres undefined)
inactive: EKVX 23.4 µM | SK-MEL-28 11.9 µM | COLO 205 14.7 µM | UACC-257 31.6 µM | HL-60 18.9 µM | HT-29 4.42 µM | A498 9.4 µM | OVCAR-5 > 37.1 µM | SF-539 11 µM | SR 10.8 µM | 786-0 3.65 µM | SK-MEL-5 21.7 µM | KM12 7.03 µM | SF-268 5.16 µM | ACHN 29.4 µM | RPMI-8226 18.7 µM

O=[N+]([O-])C[C@@]12O[C@]3(O)C4C5CC(C6C5C3C61)C42 (some centres undefined)
inactive: EKVX > 100 µM | SK-MEL-28 > 100 µM | COLO 205 > 100 µM | UACC-257 > 100 µM | HL-60 > 100 µM | HT-29 > 100 µM | A498 > 100 µM | OVCAR-5 > 100 µM | SF-539 > 100 µM | SR 80.2 µM | 786-0 > 100 µM | SK-MEL-5 > 100 µM | MDA-MB-435 > 100 µM | KM12 > 100 µM | SF-268 > 100 µM | ACHN > 100 µM | RPMI-8226 > 100 µM | MDA-MB-231 > 100 µM

c1ccc(CCN2CCN=C2Cc2ccccc2)cc1
inactive: EKVX > 100 µM | SK-MEL-28 > 100 µM | COLO 205 > 100 µM | UACC-257 > 100 µM | HL-60 > 100 µM | HT-29 67.1 µM | A498 > 100 µM | OVCAR-5 > 100 µM | SR > 100 µM | 786-0 > 100 µM | MDA-N > 100 µM | SK-MEL-5 > 100 µM | KM12 > 100 µM | SF-268 > 100 µM | ACHN > 100 µM | RPMI-8226 29 µM | MDA-MB-231 > 100 µM

CSc1nc(NC2OCC(OC(C)=O)C(OC(C)=O)C2OC(C)=O)c(/N=C\C=N\c2c(NC3OCC(OC(C)=O)C(OC(C)=O)C3OC(C)=O)nc(SC)n(C)c2=O)c(=O)n1C (centres undefined)
inactive: EKVX > 100 µM | SK-MEL-28 > 100 µM | COLO 205 > 100 µM | UACC-257 > 100 µM | HL-60 > 100 µM | HT-29 > 100 µM | A498 > 100 µM | OVCAR-5 > 100 µM | SF-539 > 100 µM | SR > 100 µM | 786-0 > 100 µM | SK-MEL-5 > 100 µM | KM12 > 100 µM | SF-268 > 100 µM | ACHN > 100 µM | RPMI-8226 > 100 µM
